“And” between values parts separate entries of the source, which are not always exact repeats. Equal entries are not always repeated. Structures can show the parent of a compound that is named as a salt. Inconclusive results and toxic doses are left out. Peptide text beside a SMILES is read from it. * marks the point of attachment. Tfa = O=C(C(F)(F)F)*
Tested on: P388 leukemia ip, CD2F1 mice, survival T/C
Test: NCI In Vivo Anticancer Drug Screen. Data for tumor model P388 Leukemia (intraperitoneal) in CD2F1 (CDF1) mice
Settings: endpoint: median survival time, higher = longer survival
In short: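 Mice carrying the transplanted tumor received test compound or vehicle. Survival was recorded in each group, and the value is the treated-group measurement divided by that of the vehicle-treated control group.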

[1] = dose: 50.0 mg/kg/injection, schedule: Q01DX009 (ip), vehicle: saline with Tween-80
[2] = dose: 100.0 mg/kg/injection, schedule: Q01DX009 (ip), vehicle: saline with Tween-80
[3] = dose: 200.0 mg/kg/injection, schedule: Q01DX009 (ip), vehicle: saline with Tween-80

CC1(C)COC(c2c(F)cccc2Cl)=N1
T/C (dose: 50.0 mg/kg/injection, schedule: Q01DX005 (ip), vehicle: saline with Tween-80): 100 % of control | T/C (dose: 100.0 mg/kg/injection, schedule: Q01DX005 (ip), vehicle: saline with Tween-80): 100 % of control | T/C (dose: 200.0 mg/kg/injection, schedule: Q01DX005 (ip), vehicle: saline with Tween-80): 98 % of control

Cn1c(Cl)c(/C=N\Nc2ccccc2[N+](=O)[O-])c2ccccc21
T/C (dose: 25.0 mg/kg/injection, schedule: Q01DX001 (ip), vehicle: Klucel (hydroxypropylcellulose) (HPC)): 90 % of control | T/C (dose: 50.0 mg/kg/injection, schedule: Q01DX001 (ip), vehicle: Klucel (hydroxypropylcellulose) (HPC)): 87 % of control and 89 % of control | T/C (dose: 100.0 mg/kg/injection, schedule: Q01DX001 (ip), vehicle: Klucel (hydroxypropylcellulose) (HPC)): 86 % of control and 90 % of control | T/C (dose: 200.0 mg/kg/injection, schedule: Q01DX001 (ip), vehicle: Klucel (hydroxypropylcellulose) (HPC)): 87 % of control and 88 % of control

CCOC(=O)CSc1ccccc1
T/C (dose: 50.0 mg/kg/injection, schedule: Q01DX009 (ip), vehicle: saline): 100 % of control | T/C (dose: 100.0 mg/kg/injection, schedule: Q01DX009 (ip), vehicle: saline): 98 % of control | T/C (dose: 200.0 mg/kg/injection, schedule: Q01DX009 (ip), vehicle: saline): 100 % of control | T/C (dose: 400.0 mg/kg/injection, schedule: Q01DX009 (ip), vehicle: saline): 100 % of control

COc1cccc2c1C(=O)c1c(O)c3c(c(O)c1C2=O)C[C@@](O)(C(=O)CO)C[C@@H]3OC1CC(OC(C)=O)C(OC(C)=O)C(C)O1 (stereo partly specified)
T/C (dose: 3.13 mg/kg/injection, schedule: Q04DX003 (ip), vehicle: distilled water + Tween-80): 99 % of control and 123 % of control | T/C (dose: 6.25 mg/kg/injection, schedule: Q04DX003 (ip), vehicle: distilled water + Tween-80): 123 % of control | T/C (dose: 12.5 mg/kg/injection, schedule: Q04DX003 (ip), vehicle: distilled water + Tween-80): 163 % of control | T/C (dose: 25.0 mg/kg/injection, schedule: Q04DX003 (ip), vehicle: distilled water + Tween-80): 185 % of control and 192 % of control | T/C (dose: 50.0 mg/kg/injection, schedule: Q04DX003 (ip), vehicle: distilled water + Tween-80): 211 % of control and 269 % of control

O=C(NC(=NC(=Nc1ccc([N+](=O)[O-])cc1)c1ccccc1)c1ccccc1)c1ccccc1
T/C [1]: 93 % of control | T/C [2]: 99 % of control | T/C [3]: 90 % of control

NC(CCCCCCCCCCCCC(N)C(=O)c1ccccc1)C(=O)c1ccccc1 (stereo unspecified)
T/C (dose: 60.0 mg/kg/injection, schedule: Q01DX005 (ip), vehicle: saline with Tween-80): 101 % of control | T/C (dose: 120.0 mg/kg/injection, schedule: Q01DX005 (ip), vehicle: saline with Tween-80): 93 % of control | T/C (dose: 240.0 mg/kg/injection, schedule: Q01DX005 (ip), vehicle: saline with Tween-80): 93 % of control

O=C[c-]1[c-][c-][c-][c-]1.[Fe+2].[c-]1[c-][c-][cH-][c-]1
T/C (dose: 6.25 mg/kg/injection, schedule: Q01DX009 (ip), vehicle: saline with Tween-80): 106 % of control | T/C (dose: 12.5 mg/kg/injection, schedule: Q01DX009 (ip), vehicle: saline with Tween-80): 95 % of control | T/C (dose: 25.0 mg/kg/injection, schedule: Q01DX009 (ip), vehicle: saline with Tween-80): 97 % of control | T/C [1]: 99 % of control

Cc1ccc(S(=O)(=O)OC2C(OCc3ccccc3)C(OCc3ccccc3)C3CON(C)C32)cc1 (stereo unspecified)
T/C (dose: 50.0 mg/kg/injection, schedule: Q01DX005 (ip), vehicle: Klucel (hydroxypropylcellulose) (HPC)): 86 % of control | T/C (dose: 100.0 mg/kg/injection, schedule: Q01DX005 (ip), vehicle: Klucel (hydroxypropylcellulose) (HPC)): 89 % of control | T/C (dose: 200.0 mg/kg/injection, schedule: Q01DX005 (ip), vehicle: Klucel (hydroxypropylcellulose) (HPC)): 92 % of control

OCC(F)(F)C(F)(F)C(F)(F)F
T/C (dose: 100.0 mg/kg/injection, schedule: Q04DX003 (ip), vehicle: saline): 104 % of control | T/C (dose: 200.0 mg/kg/injection, schedule: Q04DX003 (ip), vehicle: saline): 90 % of control | T/C (dose: 400.0 mg/kg/injection, schedule: Q04DX003 (ip), vehicle: saline): 90 % of control

COc1cccc(CN2CC(C)N(N=Cc3c4c(O)c5c(O)c(C)c6c(c5c3O)C(=O)C(C)(O/C=C/C(OC)C(C)C(OC(C)=O)C(C)C(O)C(C)C(O)C(C)/C=C/C=C(\C)C(=O)N4)O6)C(C)C2)c1 (stereo unspecified)
T/C [1]: 96 % of control | T/C [2]: 95 % of control | T/C [3]: 99 % of control

C=[CH][Sn]([CH]=C)([CH2]C)[CH2]C
T/C (dose: 50.0 mg/kg/injection, schedule: Q01DX005 (ip), vehicle: saline): 102 % of control | T/C (dose: 100.0 mg/kg/injection, schedule: Q01DX005 (ip), vehicle: saline): 104 % of control | T/C (dose: 200.0 mg/kg/injection, schedule: Q01DX005 (ip), vehicle: saline): 114 % of control

COC(=O)CC(NC(=O)C1CCCN1C(=O)C(F)(F)F)C(=O)OC (stereo not drawn) (Tfa-Pro-Asp(OMe)-OMe; configuration not given here)
T/C (dose: 100.0 mg/kg/injection, schedule: Q01DX001 (ip), vehicle: saline with Tween-80): 104 % of control | T/C (dose: 200.0 mg/kg/injection, schedule: Q01DX001 (ip), vehicle: saline with Tween-80): 101 % of control and 100 % of control | T/C (dose: 400.0 mg/kg/injection, schedule: Q01DX001 (ip), vehicle: saline with Tween-80): 104 % of control

Source: PubChem BioAssay AID330 (DTP/NCI, 2004)
